# Experimental data taken from paper PMC5830615 (Scientific Reports, 2018).
# Legend:
# [1] = system: H188 (Epac1-based cAMP biosensor); assay: FRET response of biosensor H188 to cAMP analogs and Epac inhibitors in HEK293-H188-C24 cells; type: cell-based; details: for Effect on ΔFRET measured in response to 8-pCPT-2′-O-Me-cAMP-AM: Epac inhibitor co-applied
# Text: H188 contains the cAMP sensor Epac1 in which the full-length protein is truncated to remove the Disheveled, Egl-10, and Pleckstrin (DEP) membrane-targeting domain so that its expression is confined largely to the cytoplasm (Fig. 2a,b)[30]. T781A and F782A mutations introduced within the CDC25 homology domain disrupt guanine nucleotide exchange factor (GEF) activity so that binding of cAMP to H188 is not linked to downstream signaling events mediated by the Epac1 effector protein Rap1 GTPase (Fig. 2a)[30]. In H188 the Epac1 backbone is flanked by an mTurquoise2Δ FRET donor chromophore at the N-terminus, and tandem cp173 Venus-Venus FRET acceptor chromophores at the C-terminus (Fig. 2a). Binding of cAMP reduces FRET so that when exciting with 440 nm light, there is an increase of 485 nm (mTuquoise2Δ) and a decrease of 535 nm (cp173 Venus-Venus) emission fluorescence. This ΔFRET is measured as an increase of the 485/535 nm FRET ratio.
# HEK293-H188-C24 cells stably expressing H188 were plated at 80% confluence on 96-well clear-bottom assay plates (Costar 3904, Corning, NY) coated with rat tail collagen (Collaborative Biomedical Products, Bedford, MA). HEK293 cells stably expressing select GPCRs were transduced for 16 hours with H188 virus at a density of ca. 60,000 cells/well under conditions in which the multiplicity of infection (m.o.i.) was equivalent to 25 viral particles per cell. For all assays, the culture media was then removed and replaced by 200 μl/well of a standard extracellular saline (SES) solution supplemented with 11 mM glucose and 0.1% BSA[31],[34]–[36]. The composition of the SES was (in mM): 138 NaCl, 5.6 KCl, 2.6 CaCl2, 1.2 MgCl2, 11.1 glucose, and 10 Hepes (295 mOsmol, pH 7.4). Real-time kinetic assays of FRET were performed using a FlexStation 3 microplate reader equipped with monochromators (Molecular Devices, Sunnyvale, CA). Excitation light was delivered at 435/9 nm (455 nm cut-off), and emitted light was detected at 485/15 nm (CFP) or 535/15 nm (YFP)[31],[34]–[36]. The emission intensities were the averages of 12 excitation flashes for each time point per well. Test solutions dissolved in SES were placed in V-bottom 96-well plates (Greiner Bio-One, Monroe, NC), and an automated pipetting procedure was used to transfer 50 μl of each test solution to each well of the assay plate containing monolayers of these cells. The 485/535 emission ratio was calculated for each well and the mean +/− s.d. values for 12 wells were averaged. To facilitate comparisons amongst different experiments, these FRET ratio values were normalized using baseline subtraction so that a y-axis value of 1 corresponds to the initial baseline FRET ratio, whereas a value of 2 corresponds to a doubling of the FRET ratio. The time course of the ΔFRET ratio was plotted after exporting data to Origin 8.0 (OriginLab, Northampton, MA). Origin 8.0 was also used for generation of Hill plots describing dose-response relationships.
# [2] = target: T1, human NPY2R (Homo sapiens, UniProt P49146); assay: FRET assay, inhibition of adenosine-stimulated cAMP production in HEK293-H188-C24 cells transfected with human NPY2R; type: cell-based; details: BIIE0246 300 nM; adenosine 2 μM
# T1 construct: 3xHA (own knowledge: 'TN' in the cDNA Resource Center clone ID denotes an N-terminal 3xHA tag); host or cells: HEK293-H188-C24 (transient transfection, pcDNA3.1)
# T1 sequence (P49146 1-381): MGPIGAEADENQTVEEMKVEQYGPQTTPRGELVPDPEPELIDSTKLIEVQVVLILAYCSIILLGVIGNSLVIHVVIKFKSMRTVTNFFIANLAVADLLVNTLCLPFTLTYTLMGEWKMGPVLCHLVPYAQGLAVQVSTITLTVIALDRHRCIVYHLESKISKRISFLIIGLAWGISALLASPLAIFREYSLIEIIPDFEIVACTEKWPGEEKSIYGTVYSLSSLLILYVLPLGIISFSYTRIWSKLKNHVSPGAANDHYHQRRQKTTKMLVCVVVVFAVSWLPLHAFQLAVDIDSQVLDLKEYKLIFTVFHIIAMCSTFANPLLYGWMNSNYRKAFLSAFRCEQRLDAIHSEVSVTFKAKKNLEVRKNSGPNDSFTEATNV
# Protocol: (§1) Transient transfections were performed using Lipofectamine and Plus Reagent (Thermo Fisher) using methodology described previously by our laboratory for HEK293 cells. […] Plasmid encoding human NPY2R (I.D. NPYR20TN00) in pcDNA3.1 was from the University of Missouri-Rolla cDNA Resource Center (Rolla, MO). Individual clones of HEK293 cells stably expressing select FRET reporters were obtained by G418 antibiotic resistance selection, as described previously. Adenovirus for transduction of HEK293 cells with H188 was generated by a commercial vendor (ViraQuest, North Liberty, IA) using the shuttle vector pVQAd CMV K-NpA and the H188 plasmid originally created by Klarenbeek and co-workers[30].
# (§2) HEK293-H188-C24 cells stably expressing H188 were plated at 80% confluence on 96-well clear-bottom assay plates (Costar 3904, Corning, NY) coated with rat tail collagen (Collaborative Biomedical Products, Bedford, MA). […] Real-time kinetic assays of FRET were performed using a FlexStation 3 microplate reader equipped with monochromators (Molecular Devices, Sunnyvale, CA). Excitation light was delivered at 435/9 nm (455 nm cut-off), and emitted light was detected at 485/15 nm (CFP) or 535/15 nm (YFP)[31],[34]–[36]. […]
# [3] = system: human GLP-1R; assay: FRET cAMP assay in HEK293-GLP-1R cells (stable human GLP-1R) virally transduced with H188; type: cell-based; details: HEK293-GLP-1R cells transduced with H188
# Protocol: (§3) HEK293-H188-C24 cells stably expressing H188 were plated at 80% confluence on 96-well clear-bottom assay plates (Costar 3904, Corning, NY) coated with rat tail collagen (Collaborative Biomedical Products, Bedford, MA). HEK293 cells stably expressing select GPCRs were transduced for 16 hours with H188 virus at a density of ca. 60,000 cells/well under conditions in which the multiplicity of infection (m.o.i.) was equivalent to 25 viral particles per cell. For all assays, the culture media was then removed and replaced by 200 μl/well of a standard extracellular saline (SES) solution supplemented with 11 mM glucose and 0.1% BSA[31],[34]–[36]. The composition of the SES was (in mM): 138 NaCl, 5.6 KCl, 2.6 CaCl2, 1.2 MgCl2, 11.1 glucose, and 10 Hepes (295 mOsmol, pH 7.4). Real-time kinetic assays of FRET were performed using a FlexStation 3 microplate reader equipped with monochromators (Molecular Devices, Sunnyvale, CA). Excitation light was delivered at 435/9 nm (455 nm cut-off), and emitted light was detected at 485/15 nm (CFP) or 535/15 nm (YFP)[31],[34]–[36]. The emission intensities were the averages of 12 excitation flashes for each time point per well.
# [4] = system: wild-type HEK293 cells; assay: FRET cAMP assay in wild-type HEK293 cells transduced with H188 (negative control); type: cell-based, human; details: WT HEK293 lacking recombinant receptors, H188 virus; IBMX at 50 μM
# Protocol: as §3
# [5] = system: HEK293-H188-C24 cells, empty vector (EV); assay: FRET cAMP assay in HEK293-H188-C24 cells transfected with negative control empty vector; type: cell-based, human; details: GLP-1 and exendin-4 at 10 nM
# Protocol: as §1, §2
# [6] = system: adenosine A2B receptor; assay: FRET cAMP assay, endogenous adenosine A2B receptors in untransfected HEK293-H188-C24 cells; type: cell-based, human; details: read-out: Kd for antagonist action versus adenosine; versus 4 μM adenosine
# Protocol: HEK293 cells stably expressing select GPCRs were transduced for 16 hours with H188 virus at a density of ca. 60,000 cells/well under conditions in which the multiplicity of infection (m.o.i.) was equivalent to 25 viral particles per cell. For all assays, the culture media was then removed and replaced by 200 μl/well of a standard extracellular saline (SES) solution supplemented with 11 mM glucose and 0.1% BSA[31],[34]–[36]. […] Real-time kinetic assays of FRET were performed using a FlexStation 3 microplate reader equipped with monochromators (Molecular Devices, Sunnyvale, CA). […] The emission intensities were the averages of 12 excitation flashes for each time point per well.
compound,measurement,setting,value
"CC(=O)Oc1ccc(CO)cc1 [4-Abn-OH, 4-acetoxybenzyl alcohol]",Effect on ΔFRET measured in response to forskolin,[1],not blocked
N=C(N)NCCC[C@H](NC(=O)CC1(CC(=O)N2CCN(C3c4ccccc4NC(=O)c4ccccc43)CC2)CCCC1)C(=O)NCCn1c(=O)n(-c2ccccc2)n(-c2ccccc2)c1=O (stereo partly shown) [BIIE0246],"Effect on inhibitory actions of EP45 (1,000 nM) and PYY(3–36) (300 nM)",[2],reduced the inhibitory actions
CC1CCc2c(cc(Br)c(F)c2Br)N1C=O (stereo not shown) [CE3F4],Effect on baseline FRET ratio when administered alone,[1],unaffected
same,Effect on ΔFRET measured in response to 8-pCPT-2′-O-Me-cAMP-AM,[1],reduced
Nc1ncnc2c1ncn2[C@H]1CC[C@@H](CO)O1 [DDA],Effect on the cAMP-elevating action of GLP-1,[3],suppressed the action of GLP-1
Cc1ccc(S(=O)(=O)c2c(C)cc(C)cc2C)cc1 [ESI-05],Effect on baseline FRET ratio when administered alone,[1],unaffected
same,Effect on ΔFRET measured in response to 8-pCPT-2′-O-Me-cAMP-AM,[1],without effect
"CC[C@H](C)[C@H](NC(=O)[C@H](Cc1ccccc1)NC(=O)[C@H](CCC(=O)O)NC(=O)[C@H](CCCCN)NC(=O)[C@H](C)NC(=O)[C@H](C)NC(=O)[C@H](CCC(N)=O)NC(=O)CNC(=O)[C@H](CCC(=O)O)NC(=O)[C@H](CC(C)C)NC(=O)[C@H](Cc1ccc(O)cc1)NC(=O)[C@H](CO)NC(=O)[C@H](CO)NC(=O)[C@@H](NC(=O)[C@H](CC(=O)O)NC(=O)[C@H](CO)NC(=O)[C@@H](NC(=O)[C@H](Cc1ccccc1)NC(=O)[C@@H](NC(=O)CNC(=O)[C@H](CCC(=O)O)NC(=O)[C@H](C)NC(=O)[C@@H](N)Cc1c[nH]cn1)[C@@H](C)O)[C@@H](C)O)C(C)C)C(=O)N[C@@H](C)C(=O)N[C@@H](Cc1c[nH]c2ccccc12)C(=O)N[C@@H](CC(C)C)C(=O)N[C@H](C(=O)N[C@@H](CCCCN)C(=O)NCC(=O)N[C@@H](CCCNC(=N)N)C(N)=O)C(C)C [GLP-1, glucagon-like peptide-1]",Effect on levels of cAMP in wild-type HEK293 cells,[4],no such effect
same,Effect on levels of cAMP in empty vector cells,[5],without effect
CCCn1c(=O)c2[nH]c(-c3cnn(Cc4cccc(C(F)(F)F)c4)c3)nc2n(CC)c1=O [GS6201],Kd,[6],163 nM
